Results reported in ChEMBL document CHEMBL4837241, “Identification of Betulinic Acid Derivatives as Potent TGR5 Agonists with Antidiabetic Effects via Humanized TGR5H88Y Mutant Mice” (J Med Chem, 2021).
Calls of active or inactive are those of the source. The calls are words filed in the database; no cut-off is given here.

Tests used:
[1] = biological target: T1, Bile acid receptor (Homo sapiens) (UniProt Q96RI1); assay: Agonist activity at human FXR (247 to 467 residues) expressed in HEK293 cells at 100 uM incubated for 8 hrs by luciferase assay; format: cell-based
T1 sequence (whole entry): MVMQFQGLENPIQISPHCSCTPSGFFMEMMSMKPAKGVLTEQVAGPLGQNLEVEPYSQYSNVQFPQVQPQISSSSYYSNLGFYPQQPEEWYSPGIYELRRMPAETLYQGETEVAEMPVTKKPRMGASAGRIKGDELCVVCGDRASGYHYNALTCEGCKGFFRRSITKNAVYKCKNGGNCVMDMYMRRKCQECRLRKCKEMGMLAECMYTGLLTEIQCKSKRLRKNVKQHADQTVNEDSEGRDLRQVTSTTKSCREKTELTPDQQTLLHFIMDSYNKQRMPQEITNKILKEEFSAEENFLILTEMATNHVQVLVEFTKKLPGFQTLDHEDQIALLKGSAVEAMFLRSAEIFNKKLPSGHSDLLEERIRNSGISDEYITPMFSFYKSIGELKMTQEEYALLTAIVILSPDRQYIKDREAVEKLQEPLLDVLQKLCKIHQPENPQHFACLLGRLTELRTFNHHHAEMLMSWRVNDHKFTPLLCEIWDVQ

[2] = biological target: T2, G-protein coupled bile acid receptor 1 (Homo sapiens, UniProt Q8TDU6); assay: Agonist activity at N-terminal HA-tagged human TGR5 expressed in HEK293 cells assessed as […] in intracellular cAMP levels incubated for 30 mins by Lance Ultra cAMP assay; format: functional, cell-based
T2 sequence (Q8TDU6 whole entry): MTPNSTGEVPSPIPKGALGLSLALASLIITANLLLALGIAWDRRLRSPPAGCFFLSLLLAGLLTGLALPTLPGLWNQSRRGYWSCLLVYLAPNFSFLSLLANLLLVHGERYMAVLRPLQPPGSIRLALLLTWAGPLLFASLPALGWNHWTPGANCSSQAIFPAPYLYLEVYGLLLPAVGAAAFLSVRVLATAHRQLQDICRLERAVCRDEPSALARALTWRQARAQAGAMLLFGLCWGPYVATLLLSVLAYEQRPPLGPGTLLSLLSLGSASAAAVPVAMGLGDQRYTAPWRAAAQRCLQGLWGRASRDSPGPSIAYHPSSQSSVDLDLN

[3] = biological target: T3, G-protein coupled bile acid receptor 1 (Homo sapiens) (UniProt Q8TDU6); assay: Agonist activity at N-terminal HA-tagged human TGR5 expressed in HEK293 cells assessed as […] in intracellular cAMP levels incubated for 30 mins by Lance Ultra cAMP assay relative to control; format: functional, cell-based; conditions: filed as agonist
T3 sequence (whole entry): T2 sequence (Q8TDU6 whole entry)

[4] = biological target: T4, G-protein coupled bile acid receptor 1 (Mus musculus) (UniProt Q80SS6); assay: Agonist activity at N-terminal HA-tagged mouse TGR5 expressed in HEK293 cells assessed as […] in intracellular cAMP levels incubated for 30 mins by Lance Ultra cAMP assay relative to control; format: functional, cell-based; conditions: filed as agonist
T4 sequence (whole entry): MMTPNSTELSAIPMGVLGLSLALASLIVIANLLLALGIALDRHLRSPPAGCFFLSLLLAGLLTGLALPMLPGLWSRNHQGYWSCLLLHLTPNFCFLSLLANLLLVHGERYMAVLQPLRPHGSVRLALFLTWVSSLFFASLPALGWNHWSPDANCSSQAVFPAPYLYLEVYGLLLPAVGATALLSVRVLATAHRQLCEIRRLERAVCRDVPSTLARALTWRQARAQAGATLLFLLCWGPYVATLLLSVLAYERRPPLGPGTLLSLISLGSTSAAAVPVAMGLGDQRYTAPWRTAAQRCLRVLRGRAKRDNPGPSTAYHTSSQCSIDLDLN

HEK293 = assay: Agonist activity at N-terminal HA-tagged dog TGR5 expressed in HEK293 cells assessed as […] in intracellular cAMP levels incubated for 30 mins by Lance Ultra cAMP assay relative to control; format: cell-based; conditions: Canis lupus familiaris, filed as agonist

| SMILES | Activity [1] | EC50 [2] | Emax [3] | Activity [4] | Activity (HEK293) |
| --- | --- | --- | --- | --- | --- |
| CC(C)[C@@H]1CC[C@]2(N)CC[C@]3(C)[C@H](CC[C@@H]4[C@@]5(C)CC[C@@H](OC(=O)NC6CC6)C(C)(C)[C@@H]5CC[C@]43C)[C@@H]12 | inactive | 867 nM | 97% |  |  |
| CCN(C)C(=O)O[C@@H]1CC[C@]2(C)[C@H]3CC[C@@H]4[C@H]5[C@H](C(C)C)CC[C@]5(C(=O)O)CC[C@@]4(C)[C@]3(C)CC[C@H]2C1(C)C | inactive | 211 nM | 92% |  |  |
| CC(=O)[C@@H]1CC[C@]2(C(=O)O)CC[C@]3(C)[C@H](CC[C@@H]4[C@@]5(C)CC[C@@H](OC(=O)NC6CC6)C(C)(C)[C@@H]5CC[C@]43C)[C@@H]12 | inactive | 13.1 nM | 100% |  |  |
| CCOC(=O)O[C@@H]1CC[C@]2(C)[C@H]3CC[C@@H]4[C@H]5[C@H](C(C)C)CC[C@]5(C(=O)O)CC[C@@]4(C)[C@]3(C)CC[C@H]2C1(C)C | inactive | 80 nM | 92% |  |  |
| CC(C)[C@@H]1CC[C@]2(C(=O)O)CC[C@]3(C)[C@H](CC[C@@H]4[C@@]5(C)CC[C@@H](OC(=O)NC6CCCC6)C(C)(C)[C@@H]5CC[C@]43C)[C@@H]12 | inactive | 29.2 nM | 92% |  |  |
| CC(C)[C@@H]1CC[C@]2(C(=O)O)CC[C@]3(C)[C@H](CC[C@@H]4[C@@]5(C)CC[C@@H](OC(=O)CO)C(C)(C)[C@@H]5CC[C@]43C)[C@@H]12 | inactive | 27 nM | 100% |  |  |
| CC(C)[C@@H]1CC[C@]2(C(=O)O)CC[C@]3(C)[C@H](CC[C@@H]4[C@@]5(C)CC[C@@H](OC(=O)N6CCOCC6)C(C)(C)[C@@H]5CC[C@]43C)[C@@H]12 | inactive | 452 nM | 95% |  |  |
| CCCS(=O)(=O)O[C@@H]1CC[C@]2(C)[C@H]3CC[C@@H]4[C@H]5[C@H](C(C)C)CC[C@]5(C(=O)O)CC[C@@]4(C)[C@]3(C)CC[C@H]2C1(C)C | inactive | 77.6 nM | 98% |  |  |
| CC(C)[C@@H]1CC[C@]2(C(=O)O)CC[C@]3(C)[C@H](CC[C@@H]4[C@@]5(C)CC[C@@H](OC(=O)NC6CCC6)C(C)(C)[C@@H]5CC[C@]43C)[C@@H]12 | inactive | 26.7 nM | 92% |  |  |
| COCC(=O)O[C@@H]1CC[C@]2(C)[C@H]3CC[C@@H]4[C@H]5[C@H](C(C)C)CC[C@]5(C(=O)O)CC[C@@]4(C)[C@]3(C)CC[C@H]2C1(C)C | inactive | 25.2 nM | 100% |  |  |
| CC(C)[C@@H]1CC[C@]2(C(=O)O)CC[C@]3(C)[C@H](CC[C@@H]4[C@@]5(C)CC[C@@H](OC(=O)Nc6cc[nH]n6)C(C)(C)[C@@H]5CC[C@]43C)[C@@H]12 | inactive | 175 nM | 94% |  |  |
| CC(C)[C@@H]1CC[C@]2(C(=O)OCC(=O)O)CC[C@]3(C)[C@H](CC[C@@H]4[C@@]5(C)CC[C@@H](OC(=O)NC6CC6)C(C)(C)[C@@H]5CC[C@]43C)[C@@H]12 | inactive | 306 nM | 98% |  |  |
| C[C@H](CCC(=O)O)[C@H]1CC[C@H]2[C@@H]3[C@H](O)C[C@@H]4C[C@H](O)CC[C@]4(C)[C@H]3C[C@H](O)[C@]12C |  |  |  | Active | Active |
| CC(C)[C@@H]1CC[C@]2(C(=O)O)CC[C@]3(C)[C@H](CC[C@@H]4[C@@]5(C)CC[C@@H](OC(=O)Nc6ccc(F)cc6)C(C)(C)[C@@H]5CC[C@]43C)[C@@H]12 | inactive | 1510 nM | 75% |  |  |
| COc1ccc(NC(=O)O[C@@H]2CC[C@]3(C)[C@H]4CC[C@@H]5[C@H]6[C@H](C(C)C)CC[C@]6(C(=O)O)CC[C@@]5(C)[C@]4(C)CC[C@H]3C2(C)C)cc1 | inactive | 230 nM | 91% |  |  |
| C[C@H](CCC(=O)O)[C@H]1CC[C@H]2[C@@H]3CC[C@@H]4C[C@H](O)CC[C@]4(C)[C@H]3CC[C@]12C |  |  |  | Active | Active |
| CO/N=C(/C)[C@@H]1CC[C@]2(C(=O)O)CC[C@]3(C)[C@H](CC[C@@H]4[C@@]5(C)CC[C@@H](OC(=O)NC6CC6)C(C)(C)[C@@H]5CC[C@]43C)[C@@H]12 | inactive | 132 nM | 97% |  |  |
| CC(C)[C@@H]1CC[C@]2(NC(=O)OCC(=O)O)CC[C@]3(C)[C@H](CC[C@@H]4[C@@]5(C)CC[C@@H](OC(=O)NC6CC6)C(C)(C)[C@@H]5CC[C@]43C)[C@@H]12 | inactive | 271 nM | 98% |  |  |
| CCNS(=O)(=O)O[C@@H]1CC[C@]2(C)[C@H]3CC[C@@H]4[C@H]5[C@H](C(C)C)CC[C@]5(C(=O)O)CC[C@@]4(C)[C@]3(C)CC[C@H]2C1(C)C | inactive | 68.6 nM | 98% |  |  |
| CC(C)[C@@H]1CC[C@]2(NC(=O)NCC(=O)O)CC[C@]3(C)[C@H](CC[C@@H]4[C@@]5(C)CC[C@@H](OC(=O)NC6CC6)C(C)(C)[C@@H]5CC[C@]43C)[C@@H]12 | inactive | 174 nM | 99% |  |  |
| CNS(=O)(=O)O[C@@H]1CC[C@]2(C)[C@H]3CC[C@@H]4[C@H]5[C@H](C(C)C)CC[C@]5(C(=O)O)CC[C@@]4(C)[C@]3(C)CC[C@H]2C1(C)C | inactive | 45.4 nM | 99% |  |  |
| CC(C)[C@@H]1CC[C@]2(C(=O)O)CC[C@]3(C)[C@H](CC[C@@H]4[C@@]5(C)CC[C@@H](OC(=O)NC6CC6)C(C)(C)[C@@H]5CC[C@]43C)[C@@H]12 | inactive | 10.1 nM | 99% |  |  |
| CCNC(=O)O[C@@H]1CC[C@]2(C)[C@H]3CC[C@@H]4[C@H]5[C@H](C(C)C)CC[C@]5(C(=O)O)CC[C@@]4(C)[C@]3(C)CC[C@H]2C1(C)C | inactive | 13 nM | 100% |  |  |
| C[C@@H](O)[C@@H]1CC[C@]2(C(=O)O)CC[C@]3(C)[C@H](CC[C@@H]4[C@@]5(C)CC[C@@H](OC(=O)NC6CC6)C(C)(C)[C@@H]5CC[C@]43C)[C@@H]12 | inactive | 38 nM | 99% |  |  |
| CC(C)[C@@H]1CC[C@]2(C(=O)O)CC[C@]3(C)[C@H](CC[C@@H]4[C@@]5(C)CC[C@@H](OC(N)=O)C(C)(C)[C@@H]5CC[C@]43C)[C@@H]12 | inactive | 30.7 nM | 100% |  |  |
| CC(C)NC(=O)O[C@@H]1CC[C@]2(C)[C@H]3CC[C@@H]4[C@H]5[C@H](C(C)C)CC[C@]5(C(=O)O)CC[C@@]4(C)[C@]3(C)CC[C@H]2C1(C)C | inactive | 124 nM | 97% |  |  |
| CNC(=O)O[C@@H]1CC[C@]2(C)[C@H]3CC[C@@H]4[C@H]5[C@H](C(C)C)CC[C@]5(C(=O)O)CC[C@@]4(C)[C@]3(C)CC[C@H]2C1(C)C | inactive | 17.8 nM | 98% |  |  |
| CCCNC(=O)O[C@@H]1CC[C@]2(C)[C@H]3CC[C@@H]4[C@H]5[C@H](C(C)C)CC[C@]5(C(=O)O)CC[C@@]4(C)[C@]3(C)CC[C@H]2C1(C)C | inactive | 26.9 nM | 96% |  |  |
| CC1(C)[C@H](OC(=O)NC2CC2)CC[C@]2(C)[C@H]3CC[C@@H]4[C@H]5[C@H]([C@@]6(C)CO6)CC[C@]5(C(=O)O)CC[C@@]4(C)[C@]3(C)CC[C@@H]12 | inactive | 18.6 nM | 99% |  |  |
| CC(C)[C@@H]1CC[C@]2(C(=O)NCC(=O)O)CC[C@]3(C)[C@H](CC[C@@H]4[C@@]5(C)CC[C@@H](OC(=O)NC6CC6)C(C)(C)[C@@H]5CC[C@]43C)[C@@H]12 | inactive | 380 nM | 96% |  |  |
